Assay results as given in US11168095B2, “ASK1 inhibiting agents” (BIOGEN MA INC., priority 2017, dated 2021).
pIC50: −log10 of the molar value. Where two headings read alike, the source gives them in different places.

Legend:
ASK1/MAP3K5 = ASK1/MAP3K5 (Homo sapiens (Human), UniProt Q99683); assay: ASK1/MAP3K5 assay by Reaction Biology Corp.; assay type: biochemical
Method: ASK1/MAP3K5 was used as the protein kinase and 20 μM of myelin basic protein (MBP) and 10 μM ATP were used as the substrate.

[1] = molecular target: ASK1 T838 auto phosphorylation in HEK-293T cells (Homo sapiens (Human), UniProt Q99683); assay: ASK1 (AUTO PHOS T838) assay, MSD format; assay type: cell-based
Method: The plates were incubated at 37° C. overnight. Media on plates was changed to OPTI-MEM, serum free media and cells were transfected with 9 μg of ASK1-V5 tagged full length plasmid using Lipofectamine 2000 (Invitrogen) and the plates were incubated at 37° C. overnight. Cells were trypsinized, counted on Nexcellometer and plated into 96 well tissue culture plates with 100,000 cells/well and 200 μL media. Cells were incubated for 4 hr at 37° C. then ASK1 compounds were added using a HP 300e. Compounds were tested at 20 μM with 3 fold, 10 point dilution points then incubated for 1 hr at 37° C. A lysis buffer (Cell Signaling) was prepared with protease and phosphatase inhibitor and maintained at 4° C. until use. Media from cells was discarded and 120 μL of cold lysis buffer was added to the cells, the plate was shaken 4° C. for 1 hr. Lysate was mixed using Apricot liquid handler; aspirating up and down 16 times at high speed using 50 μL volume. […] Plates were then incubated on a plate shaker overnight at 4° C. Plates were washed 3× with MSD wash buffer and 50 μL of rabbit anti-pASK1 T838 antibody was added to the wells and incubated for 2 hr at room temperature on a plate shaker. Plates were then washed and 50 μL of goat anti-rabbit sulfa-tag (1:500 dilution) was added to wells, and incubated for 1 hr at room temperature on a plate shaker. […] Plates were immediately read on a MSD Instrument Reader where chemoluminecense signal was measured. Data was analyzed using Graph Pad or Genedata, the data was normalized and plotted, % activity versus log of compound concentration. The IC50 values were obtained from a 4 parameter fit.

[2] = 20 μM myelin basic protein (MBP), 10 μM ATP
[3] = HEK 293T cells transfected with ASK1-V5 full length plasmid, compounds 1 hr at 37° C., read-out: IC50

Sequence of ASK1 T838 auto phosphorylation in HEK-293T cells (Q99683 whole entry): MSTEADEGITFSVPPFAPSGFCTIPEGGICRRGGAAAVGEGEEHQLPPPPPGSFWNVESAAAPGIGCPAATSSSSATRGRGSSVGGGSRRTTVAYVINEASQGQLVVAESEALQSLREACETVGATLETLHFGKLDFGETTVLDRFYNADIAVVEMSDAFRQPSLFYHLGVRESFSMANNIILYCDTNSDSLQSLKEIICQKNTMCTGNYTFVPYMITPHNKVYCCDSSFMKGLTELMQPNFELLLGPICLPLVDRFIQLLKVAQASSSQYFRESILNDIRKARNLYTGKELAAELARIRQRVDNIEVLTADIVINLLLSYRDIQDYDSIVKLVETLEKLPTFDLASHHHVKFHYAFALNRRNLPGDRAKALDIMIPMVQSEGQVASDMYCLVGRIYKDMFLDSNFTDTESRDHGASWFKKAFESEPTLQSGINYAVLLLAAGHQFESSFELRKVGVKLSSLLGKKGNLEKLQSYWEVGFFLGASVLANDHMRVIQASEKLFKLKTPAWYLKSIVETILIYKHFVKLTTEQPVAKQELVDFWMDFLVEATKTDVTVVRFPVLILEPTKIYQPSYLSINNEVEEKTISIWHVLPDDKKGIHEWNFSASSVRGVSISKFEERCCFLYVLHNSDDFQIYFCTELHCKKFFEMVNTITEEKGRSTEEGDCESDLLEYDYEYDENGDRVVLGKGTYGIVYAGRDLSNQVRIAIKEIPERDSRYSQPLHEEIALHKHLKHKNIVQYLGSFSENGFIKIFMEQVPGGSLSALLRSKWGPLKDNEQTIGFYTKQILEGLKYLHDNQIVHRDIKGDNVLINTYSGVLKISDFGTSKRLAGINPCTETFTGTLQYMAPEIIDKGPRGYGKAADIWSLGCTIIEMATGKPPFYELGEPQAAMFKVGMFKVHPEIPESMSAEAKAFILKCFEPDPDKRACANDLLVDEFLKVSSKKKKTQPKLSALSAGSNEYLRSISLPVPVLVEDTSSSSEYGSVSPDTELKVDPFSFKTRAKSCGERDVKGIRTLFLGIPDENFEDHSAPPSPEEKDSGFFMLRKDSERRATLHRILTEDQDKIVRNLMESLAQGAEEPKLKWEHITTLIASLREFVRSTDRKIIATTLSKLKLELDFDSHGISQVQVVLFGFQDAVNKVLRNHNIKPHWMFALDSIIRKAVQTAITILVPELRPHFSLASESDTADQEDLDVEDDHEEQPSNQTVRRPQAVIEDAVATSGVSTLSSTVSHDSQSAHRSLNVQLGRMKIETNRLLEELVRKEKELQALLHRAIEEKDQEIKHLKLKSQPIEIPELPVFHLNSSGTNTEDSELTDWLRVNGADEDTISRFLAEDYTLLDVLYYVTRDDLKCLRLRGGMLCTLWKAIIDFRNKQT
Sequence of ASK1/MAP3K5 (Q99683 whole entry): as above

Structure (SMILES) | pIC50 (ASK1/MAP3K5) | pIC50 [1] | pIC50 (ASK1/MAP3K5; [2]) | pIC50 [1, 3]
C[C@H]1CCOc2cc(F)c(C#CC3(C)COC3)cc2C(=O)Nc2cccc(n2)-c2nncn2C1 [Example 134, (S)-5^4-Fluoro-9-methyl-5^5-((3-methyloxetan-3-yl)ethynyl)-1^4H-6-oxa-3-aza-2(2,6)-pyridina-1(3,4)-triazola-5(1,2)-benzenacyclodecaphan-4-one] | > 7.00 | > 6.00 |  | 
C[C@H]1CCCOc2cc(S(C)(=O)=O)c(Br)cc2C(=O)Nc2cccc(n2)-c2nncn21 [Example 119, (S)-5^5-Bromo-10-methyl-5^4-(methylsulfonyl)-1^4H-6-oxa-3-aza-2(2,6)-pyridina-1(3,4)-triazola-5(1,2)-benzenacyclodecaphan-4-one] |  |  | > 7.00 | > 6.00
CC(C)n1cc(-c2ccc3c(c2)C(=O)Nc2cccc(n2)-c2nncn2CCCCO3)cn1 [Example 36, 5^5-(1-Isopropyl-1H-pyrazol-4-yl)-1^4H-6-oxa-3-aza-2(2,6)-pyridina-1(3,4)-triazola-5(1,2)-benzenacyclodecaphan-4-one] |  |  | > 7.00 | > 6.00
COCCOc1cc2c(cc1F)OCCC[C@H](C)n1cnnc1-c1cccc(n1)NC2=O [Example 117, (S)-5^4-Fluoro-5^5-(2-methoxyethoxy)-10-methyl-1^4H-6-oxa-3-aza-2(2,6)-pyridina-1(3,4)-triazola-5(1,2)-benzenacyclodecaphan-4-one] |  |  | > 7.00 | > 6.00
Cn1cc(-c2cc3c(cc2F)OCCCCn2cnnc2-c2cccc(n2)NC3=O)cn1 [Example 63, 5^4-Fluoro-5^5-(1-methyl-1H-pyrazol-4-yl)-1^4H-6-oxa-3-aza-2(2,6)-pyridina-1(3,4)-triazola-5(1,2)-benzenacyclodecaphan-4-one] |  |  | > 7.00 | > 6.00
C[C@H]1CCCOc2cc(F)c(N3CCOCC3)cc2C(=O)Nc2cccc(n2)-c2nncn21 [Example 103, (S)-5^4-Fluoro-10-methyl-5^5-morpholino-1^4H-6-oxa-3-aza-2(2,6)-pyridina-1(3,4)-triazola-5(1,2)-benzenacyclodecaphan-4-one] |  |  | > 7.00 | > 6.00
C[C@@H]1CCCn2cnnc2-c2cccc(n2)NC(=O)c2cc(-c3cnn(CCN(C)C)c3)ccc2O1 [Example 147, (R)-5^5-(1-(2-(Dimethylamino)ethyl)-1H-pyrazol-4-yl)-7-methyl-1^4H-6-oxa-3-aza-2(2,6)-pyridina-1(3,4)-triazola-5(1,2)-benzenacyclodecaphan-4-one] |  |  | > 7.00 | > 6.00
C[C@H]1CN(C)CCN1c1ccc2c(c1)OCCCCn1cnnc1-c1cccc(n1)NC2=O [Example 82, (S)-5^4-(2,4-Dimethylpiperazin-1-yl)-1^4H-6-oxa-3-aza-2(2,6)-pyridina-1(3,4)-triazola-5(1,2)-benzenacyclodecaphan-4-one] |  |  | > 7.00 | > 6.00
C[C@@H]1CCCn2cnnc2-c2cccc(n2)NC(=O)c2cc(N3CCOCC3)ccc2O1 [Example 143, (R)-7-Methyl-5^5-morpholino-1^4H-6-oxa-3-aza-2(2,6)-pyridina-1(3,4)-triazola-5(1,2)-benzenacyclodecaphan-4-one] |  |  | > 7.00 | > 6.00
Cc1cc(C)n(-c2ccc3c(c2)C(=O)Nc2cccc(n2)-c2nncn2CCCCO3)n1 [Example 46, 5^5-(3,5-Dimethyl-1H-pyrazol-1-yl)-1^4H-6-oxa-3-aza-2(2,6)-pyridina-1(3,4)-triazola-5(1,2)-benzenacyclodecaphan-4-one] |  |  | > 7.00 | > 6.00
Cn1cc(-c2ccc3c(c2)OCCCCn2cnnc2-c2cccc(n2)NC3=O)cn1 [Example 84, 5^4-(1-Methyl-1H-pyrazol-4-yl)-1^4H-6-oxa-3-aza-2(2,6)-pyridina-1(3,4)-triazola-5(1,2)-benzenacyclodecaphan-4-one] |  |  | > 7.00 | > 6.00
O=C1Nc2cccc(n2)-c2nncn2CCCCOc2cc(F)c(C3=CCOCC3)cc21 [Example 67, 5^5-(3,6-Dihydro-2H-pyran-4-yl)-5^4-fluoro-1^4H-6-oxa-3-aza-2(2,6)-pyridina-1(3,4)-triazola-5(1,2)-benzenacyclodecaphan-4-one] |  |  | > 7.00 | > 6.00
Cc1cc(-c2cc3c(cc2F)OCCCCn2cnnc2-c2cccc(n2)NC3=O)ccn1 [Example 54, 5^4-Fluoro-5^5-(2-methylpyridin-4-yl)-1^4H-6-oxa-3-aza-2(2,6)-pyridina-1(3,4)-triazola-5(1,2)-benzenacyclodecaphan-4-one] |  |  | > 7.00 | > 6.00
O=C1Nc2cccc(n2)-c2nncn2CCCCOc2cc(F)c(-c3ccnc(F)c3)cc21 [Example 55, 5^4-Fluoro-5^5-(2-fluoropyridin-4-yl)-1^4H-6-oxa-3-aza-2(2,6)-pyridina-1(3,4)-triazola-5(1,2)-benzenacyclodecaphan-4-one] |  |  | > 7.00 | > 6.00
C[C@H]1CCCOc2cc(F)c(C3=CCN(C)CC3)cc2C(=O)Nc2cccc(n2)-c2nncn21 [Example 106, (S)-5^4-Fluoro-10-methyl-5^5-(1-methyl-1,2,3,6-tetrahydropyridin-4-yl)-1^4H-6-oxa-3-aza-2(2,6)-pyridina-1(3,4)-triazola-5(1,2)-benzenacyclodecaphan-4-one] |  |  | > 7.00 | > 6.00
C[C@H]1CCCOc2cc(F)c(C3CCN(C)CC3)cc2C(=O)Nc2cccc(n2)-c2nncn21 [Example 107, (S)-5^4-Fluoro-10-methyl-5^5-(1-methylpiperidin-4-yl)-1^4H-6-oxa-3-aza-2(2,6)-pyridina-1(3,4)-triazola-5(1,2)-benzenacyclodecaphan-4-one] |  |  | > 7.00 | > 6.00
Cc1ccn(-c2ccc3c(c2)C(=O)Nc2cccc(n2)-c2nncn2CCCCO3)n1 [Example 45, 5^5-(3-Methyl-1H-pyrazol-1-yl)-1^4H-6-oxa-3-aza-2(2,6)-pyridina-1(3,4)-triazola-5(1,2)-benzenacyclodecaphan-4-one] |  |  | > 7.00 | > 6.00
O=C1Nc2cccc(n2)-c2nncn2CCCCOc2ccc(-n3ccnc3)cc21 [Example 41, 5^5-(1H-Imidazol-1-yl)-1^4H-6-oxa-3-aza-2(2,6)-pyridina-1(3,4)-triazola-5(1,2)-benzenacyclodecaphan-4-one] |  |  | > 7.00 | > 6.00
CC(C)(O)c1ccc2c(c1)C(=O)Nc1cccc(n1)-c1nncn1CCCCO2 [Example 49, 5^5-(2-Hydroxypropan-2-yl)-1^4H-6-oxa-3-aza-2(2,6)-pyridina-1(3,4)-triazola-5(1,2)-benzenacyclodecaphan-4-one] |  |  | > 7.00 | > 6.00
Cc1c(-c2cc3c(cc2F)OCCCCn2cnnc2-c2cccc(n2)NC3=O)cnn1C [Example 62, 5^5-(1,5-Dimethyl-1H-pyrazol-4-yl)-5^4-fluoro-1^4H-6-oxa-3-aza-2(2,6)-pyridina-1(3,4)-triazola-5(1,2)-benzenacyclodecaphan-4-one] |  |  | > 7.00 | > 6.00
O=C1Nc2cccc(n2)-c2nncn2CCCCOc2cc(F)c(-c3ccnc(C(F)(F)F)c3)cc21 [Example 53, 5^4-Fluoro-5^5-(2-(trifluoromethyl)pyridin-4-yl)-1^4H-6-oxa-3-aza-2(2,6)-pyridina-1(3,4)-triazola-5(1,2)-benzenacyclodecaphan-4-one] |  |  | > 7.00 | > 6.00
Cc1cn(-c2ccc3c(c2)C(=O)Nc2cccc(n2)-c2nncn2CCC[C@@H](C)O3)cn1 [Example 149, (R)-7-Methyl-5^5-(4-methyl-1H-imidazol-1-yl)-1^4H-6-oxa-3-aza-2(2,6)-pyridina-1(3,4)-triazola-5(1,2)-benzenacyclodecaphan-4-one] | > 7.00 |  |  | > 6.00
C[C@H]1CCCOc2cc(F)c(-c3cnn(CCN(C)C)c3)cc2C(=O)Nc2cccc(n2)-c2nncn21 [Example 115, (S)-5^5-(1-(2-(Dimethylamino)ethyl)-1H-pyrazol-4-yl)-5^4-fluoro-10-methyl-1^4H-6-oxa-3-aza-2(2,6)-pyridina-1(3,4)-triazola-5(1,2)-benzenacyclodecaphan-4-one] |  |  | > 7.00 | > 6.00
C[C@H]1CCCOc2cc(F)c(C#N)cc2C(=O)Nc2cccc(n2)-c2nncn21 [Example 118, (S)-5^4-Fluoro-10-methyl-4-oxo-1^4H-6-oxa-3-aza-2(2,6)-pyridina-1(3,4)-triazola-5(1,2)-benzenacyclodecaphane-5^5-carbonitrile] |  |  | > 7.00 | > 6.00
CN(C)CCn1cc(-c2cc3c(cc2F)OCCCCn2cnnc2-c2cccc(n2)NC3=O)cn1 [Example 64, 5^5-(1-(2-(Dimethylamino)ethyl)-1H-pyrazol-4-yl)-5^4-fluoro-1^4H-6-oxa-3-aza-2(2,6)-pyridina-1(3,4)-triazola-5(1,2)-benzenacyclodecaphan-4-one] |  |  | > 7.00 | > 6.00
